The source made the active and inactive calls. The rule behind the calls is not given here.
Columns and labels:
[1] = target: T1, Islet amyloid polypeptide (Homo sapiens) (UniProt P10997); experiment: Activity of IAPP assessed as maximal rate of self-assembly at 1:1 protein to compound ratio by NMR analysis (reference value: 12.2/day)
T1 sequence (whole entry): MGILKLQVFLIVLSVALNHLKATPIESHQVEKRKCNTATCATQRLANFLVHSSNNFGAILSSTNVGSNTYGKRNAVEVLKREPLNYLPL

[2] = target: T1, Islet amyloid polypeptide (Homo sapiens); experiment: Inhibition of IAPP assembly assessed as prenucleation period at 1:1 protein to compound ratio by NMR analysis
[3] = target: T1, Islet amyloid polypeptide (Homo sapiens); experiment: Inhibition of IAPP fibrillation at 1:1 protein to compound ratio after 44 days by transmission electron microscopy
[4] = target: T1, Islet amyloid polypeptide (Homo sapiens); experiment: Inhibition of IAPP assembly at 1:1 protein to compound ratio after 18 to 31 days by NMR analysis
[5] = target: T1, Islet amyloid polypeptide (Homo sapiens); experiment: Inhibition of IAPP assembly assessed as nucleation period at 1:1 protein to compound ratio (reference value: 15.3 days)
[6] = target: T1, Islet amyloid polypeptide (Homo sapiens); experiment: Inhibition of IAPP assembly at 1:1 protein to compound ratio after 1 to 5 days by circular dichroism spectra analysis
[7] = target: T1, Islet amyloid polypeptide (Homo sapiens); experiment: Inhibition of IAPP assembly at 1:1 protein to compound ratio after 29 days by NMR analysis
[8] = Inhibition of IAPP (11 to 25) S20G mutant assembly at 1:1 protein to compound ratio after 1 to 8 days by TOCSY spectra analysis

COc1cc(/C=C/C(=O)CC(=O)/C=C/c2ccc(O)c(OC)c2)ccc1O
Activity [1]: 15.1 day⁻¹
TIME [2]: 408 h
inhibition [3]: inactive
inhibition [4]: Active
TIME [5]: 290 h
inhibition [6]: Active
inhibition [7]: inactive
inhibition [8]: Active
